Columns and labels:
[1] = xn = mol fraction of the nth substance listed; settings: 100 kPa, Liquid; for speed of sound: Frequency=3 MHz, Sing-around technique in a fixed-path interferometer; for mass density: Vibrating tube method
[2] = refractive index (Na D-line) (dimensionless); xn = mol fraction of the nth substance listed; settings: 100 kPa, Liquid, Standard Abbe refractometry

CCCCCCCC[n+]1ccn(C)c1.F[B-](F)(F)F [1-methyl-3-octylimidazolium tetrafluoroborate] + CC(C)CO
Settings | mass density, 298.15 K [kg/m3] | mass density, 308.15 K [kg/m3] | mass density, 318.15 K [kg/m3] | refractive index, 298.15 K | refractive index, 308.15 K | refractive index, 318.15 K | speed of sound, 298.15 K [m/s] | speed of sound, 308.15 K [m/s] | speed of sound, 318.15 K [m/s]
[1], x1 = 0.1084 | 876.21 | 869.11 | 860.8 | – | – | – | 1230.3 | 1198.3 | 1162.2
[1], x1 = 0.2056 | 927.81 | 920.72 | 912.57 | – | – | – | 1274.1 | 1242.4 | 1206.4
[1], x1 = 0.3002 | 966.65 | 959.59 | 951.64 | – | – | – | 1314.4 | 1282.1 | 1246.2
[1], x1 = 0.4082 | 1001.41 | 994.4 | 986.65 | – | – | – | 1354.1 | 1322.4 | 1287.5
[1], x1 = 0.4989 | 1024.88 | 1017.95 | 1010.44 | – | – | – | 1381.1 | 1351.3 | 1317.8
[1], x1 = 0.6024 | 1047.08 | 1040.26 | 1032.97 | – | – | – | 1407.2 | 1378.2 | 1347.4
[1], x1 = 0.7044 | 1065.38 | 1058.63 | 1051.52 | – | – | – | 1429.1 | 1402.1 | 1373.3
[1], x1 = 0.8062 | 1080.91 | 1074.22 | 1067.26 | – | – | – | 1447.2 | 1421.1 | 1394.3
[1], x1 = 0.8998 | 1093.3 | 1086.63 | 1079.78 | – | – | – | 1463.8 | 1437.1 | 1411.3
[1], x1 = 1 | 1105.02 | 1098.32 | 1091.54 | – | – | – | 1485.1 | 1458.5 | 1433.2
[2], x1 = 0.1084 | – | – | – | 1.40643 | 1.40292 | 1.40008 | – | – | –
[2], x1 = 0.2056 | – | – | – | 1.41442 | 1.41142 | 1.40854 | – | – | –
[2], x1 = 0.3002 | – | – | – | 1.41922 | 1.41636 | 1.41407 | – | – | –
[2], x1 = 0.4082 | – | – | – | 1.42292 | 1.41998 | 1.41801 | – | – | –
[2], x1 = 0.4989 | – | – | – | 1.42482 | 1.42182 | 1.41925 | – | – | –
[2], x1 = 0.6024 | – | – | – | 1.42664 | 1.42372 | 1.42108 | – | – | –
[2], x1 = 0.7044 | – | – | – | 1.42845 | 1.42562 | 1.42306 | – | – | –
[2], x1 = 0.8062 | – | – | – | 1.43004 | 1.42748 | 1.42474 | – | – | –
[2], x1 = 0.8998 | – | – | – | 1.43121 | 1.42866 | 1.42604 | – | – | –
[2], x1 = 1 | – | – | – | 1.43253 | 1.42984 | 1.42715 | – | – | –
